Laboratory results taken from patent US20240109917A1 (ACTELION PHARMACEUTICALS LTD, priority 2020, published 2024).

Tests used:
[1] = biological target: His6-TEV-PDGFRβ (557-1016) (Homo sapiens (Human), UniProt P09619); assay: PDGFRβ HTRF Assay; format: biochemical; details: read-out: PDGFR HTRF IC50
Summary of the method: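 Human PDGFRβ (557-1016) pre-incubated with compound for 30 min at RT in pH 7.5 HEPES/MgCl2/EGTA/Brij-35/DTT buffer. Reaction started with ATP and TK-biotin peptide, run 3 h at RT, then quenched with EDTA-containing Eu-cryptate antibody/streptavidin-XL665. HTRF 665/620 nm ratio read after 60 min; percent inhibition relative to DMSO and 10 μM imatinib controls.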

[2] = biological target: VEGFR2, unphosphorylated (Homo sapiens (Human), UniProt P35968); assay: VEGFR ADP GLO Assay; format: biochemical
VEGFR2, unphosphorylated, sequence (P35968 20-1356): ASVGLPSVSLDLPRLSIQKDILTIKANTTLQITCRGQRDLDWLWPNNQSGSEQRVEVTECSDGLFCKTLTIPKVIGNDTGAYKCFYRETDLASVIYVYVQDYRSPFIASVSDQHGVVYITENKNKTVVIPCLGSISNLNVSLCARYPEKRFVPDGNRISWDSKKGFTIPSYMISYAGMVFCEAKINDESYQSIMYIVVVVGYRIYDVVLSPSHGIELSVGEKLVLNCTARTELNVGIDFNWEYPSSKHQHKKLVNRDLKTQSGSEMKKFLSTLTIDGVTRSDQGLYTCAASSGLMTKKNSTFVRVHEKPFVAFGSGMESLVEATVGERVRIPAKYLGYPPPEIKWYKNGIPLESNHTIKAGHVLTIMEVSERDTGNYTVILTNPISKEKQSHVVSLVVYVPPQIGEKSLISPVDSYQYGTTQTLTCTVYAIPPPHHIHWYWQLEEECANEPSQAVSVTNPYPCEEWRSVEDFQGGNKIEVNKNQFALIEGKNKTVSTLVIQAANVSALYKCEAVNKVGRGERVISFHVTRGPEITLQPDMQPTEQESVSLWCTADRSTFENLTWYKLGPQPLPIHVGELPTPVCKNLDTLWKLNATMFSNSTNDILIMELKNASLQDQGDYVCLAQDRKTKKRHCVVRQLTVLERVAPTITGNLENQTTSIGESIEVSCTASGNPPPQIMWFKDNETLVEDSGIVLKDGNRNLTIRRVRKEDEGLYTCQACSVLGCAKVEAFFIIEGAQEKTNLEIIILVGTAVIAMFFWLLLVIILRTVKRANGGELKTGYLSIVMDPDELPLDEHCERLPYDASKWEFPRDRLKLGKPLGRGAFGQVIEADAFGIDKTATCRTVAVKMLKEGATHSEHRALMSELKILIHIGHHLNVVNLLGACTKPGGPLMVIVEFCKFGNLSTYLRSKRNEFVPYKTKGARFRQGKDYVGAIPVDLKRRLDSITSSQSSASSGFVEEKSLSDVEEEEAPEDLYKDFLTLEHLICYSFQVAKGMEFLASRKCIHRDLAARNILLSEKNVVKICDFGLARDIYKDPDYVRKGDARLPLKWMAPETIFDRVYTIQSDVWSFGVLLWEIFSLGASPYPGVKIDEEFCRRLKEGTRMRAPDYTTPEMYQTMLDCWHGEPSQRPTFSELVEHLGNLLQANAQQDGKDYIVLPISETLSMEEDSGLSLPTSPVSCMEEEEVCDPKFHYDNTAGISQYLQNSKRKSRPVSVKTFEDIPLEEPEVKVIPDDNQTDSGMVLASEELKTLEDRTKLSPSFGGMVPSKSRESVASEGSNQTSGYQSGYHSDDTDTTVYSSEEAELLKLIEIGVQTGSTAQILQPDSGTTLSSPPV

His6-TEV-PDGFRβ (557-1016), sequence (P09619 557-1016): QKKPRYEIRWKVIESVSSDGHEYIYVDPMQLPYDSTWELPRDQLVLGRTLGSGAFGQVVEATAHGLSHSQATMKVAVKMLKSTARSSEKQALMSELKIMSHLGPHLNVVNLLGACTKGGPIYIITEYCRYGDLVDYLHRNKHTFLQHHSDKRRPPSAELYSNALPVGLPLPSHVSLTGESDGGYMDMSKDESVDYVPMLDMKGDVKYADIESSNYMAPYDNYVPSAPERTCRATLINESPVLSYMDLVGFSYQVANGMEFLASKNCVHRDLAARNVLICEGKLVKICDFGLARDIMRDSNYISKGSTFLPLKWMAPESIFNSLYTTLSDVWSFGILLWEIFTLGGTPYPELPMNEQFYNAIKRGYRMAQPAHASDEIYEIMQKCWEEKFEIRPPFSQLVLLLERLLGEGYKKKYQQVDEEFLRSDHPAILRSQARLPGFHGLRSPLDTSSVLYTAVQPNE

Row | SMILES | IC50 [1] [nM] | IC50 [2] [nM]
1 | Cc1ncc(NC(=O)[C@@H]2C[C@H](C)CN2C)cc1NC(=O)c1cnn2cc(-c3cccnc3O)sc12 [Example 316, N-(5-((2S,4S)-1,4-dimethylpyrrolidine-2-carboxamido)-2-methylpyridin-3-yl)-2-(2-hydroxypyridin-3-yl)pyrazolo[5,1-b]thiazole-7-carboxamide] | 1.9 | > 7500
2 | Cc1ncc(NC(=O)[C@@H]2CCCN3CCCC[C@H]23)cc1NC(=O)c1cnn2cc(-c3cnn(C)c3)sc12 [Example 308, 2-(1-methyl-1H-pyrazol-4-yl)-N-(2-methyl-5-((1R,9aR)-octahydro-2H-quinolizine-1-carboxamido)pyridin-3-yl)pyrazolo[5,1-b]thiazole-7-carboxamide] | 20.9 | > 7500
3 | Cc1ncc(NC(=O)CN2CC(C)(C)C2)cc1NC(=O)c1cnn2cc(-c3cnn(C(F)(F)F)c3)sc12 [Example 269, N-(5-(2-(3,3-dimethylazetidin-1-yl)acetamido)-2-methylpyridin-3-yl)-2-(1-(trifluoromethyl)-1H-pyrazol-4-yl)pyrazolo[5,1-b]thiazole-7-carboxamide] | 1.8 | > 7500
4 | Cc1ncc(NC(=O)CN(C)C2CCOCC2)cc1NC(=O)c1cnn2cc(-c3cnn(CC(N)=O)c3)sc12 [Example 300, 2-(1-(2-amino-2-oxoethyl)-1H-pyrazol-4-yl)-N-(2-methyl-5-(2-(methyl(tetrahydro-2H-pyran-4-yl)amino)acetamido)pyridin-3-yl)pyrazolo[5,1-b]thiazole-7-carboxamide] | 1.2 | > 7500
5 | COCCn1cc(-c2cn3ncc(C(=O)Nc4cc(NC(=O)CN5CCC6(CC6)C5)cnc4C)c3s2)cn1 [Example 326, N-(5-(2-(5-azaspiro[2.4]heptan-5-yl)acetamido)-2-methylpyridin-3-yl)-2-(1-(2-methoxyethyl)-1H-pyrazol-4-yl)pyrazolo[5,1-b]thiazole-7-carboxamide] | 0.4 | > 7500
6 | Cc1ncc(NC(=O)CN2CC(C)(C)C2)cc1NC(=O)c1cnn2cc(-c3cnc4[nH]ncc4c3)sc12 [Example 288, N-(5-(2-(3,3-dimethylazetidin-1-yl)acetamido)-2-methylpyridin-3-yl)-2-(1H-pyrazolo[3,4-b]pyridin-5-yl)pyrazolo[5,1-b]thiazole-7-carboxamide] | 0.4 | > 2500
7 | Cc1ncc(NC(=O)CN2CCc3ccncc3C2)cc1NC(=O)c1cnn2cc(-c3cnn(C)c3)sc12 [Example 23, N-(5-(2-(3,4-dihydro-2,7-naphthyridin-2 (1H)-yl)acetamido)-2-methylpyridin-3-yl)-2-(1-methyl-1H-pyrazol-4-yl)pyrazolo[5,1-b]thiazole-7-carboxamide] | 0.7 | > 7500
8 | COc1ncccc1-c1cn2ncc(C(=O)Nc3cc(NC(=O)CN4CCOCC45CCC5)cnc3C)c2s1 [Example 310, N-(5-(2-(8-oxa-5-azaspiro[3.5]nonan-5-yl)acetamido)-2-methylpyridin-3-yl)-2-(2-methoxypyridin-3-yl)pyrazolo[5,1-b]thiazole-7-carboxamide] | 0.3 | > 7500
9 | Cc1ncc(NC(=O)CN2CC(C)(C)C2)cc1NC(=O)c1cnn2cc(-c3ccsc3)sc12 [Example 282, N-(5-(2-(3,3-dimethylazetidin-1-yl)acetamido)-2-methylpyridin-3-yl)-2-(thiophen-3-yl)pyrazolo[5,1-b]thiazole-7-carboxamide] | 0.1 | 2680
10 | CNC(=O)c1cc(-c2cn3ncc(C(=O)Nc4cc(NC(=O)CN5CC(C)(C)C5)cnc4C)c3s2)ccn1 [Example 274, N-(5-(2-(3,3-dimethylazetidin-1-yl)acetamido)-2-methylpyridin-3-yl)-2-(2-(methylcarbamoyl)pyridin-4-yl)pyrazolo[5,1-b]thiazole-7-carboxamide] | 1 | > 7500
11 | CC(=O)Nc1cncc(-c2cn3ncc(C(=O)Nc4cc(NC(=O)CN5CC(C)(C)C5)cnc4C)c3s2)c1 [Example 277, 2-(5-acetamidopyridin-3-yl)-N-(5-(2-(3,3-dimethylazetidin-1-yl)acetamido)-2-methylpyridin-3-yl)pyrazolo[5,1-b]thiazole-7-carboxamide] | 0.4 | > 2500
12 | COc1ncccc1-c1cn2ncc(C(=O)Nc3cc(NC(=O)OCC(C)N4CCCC4)cnc3C)c2s1 (centres unmarked) [Example 255, 2-(pyrrolidin-1-yl)propyl (5-(2-(2-methoxypyridin-3-yl)pyrazolo[5,1-b]thiazole-7-carboxamido)-6-methylpyridin-3-yl)carbamate] | 0.2 | > 7500
13 | COc1ncccc1-c1cn2ncc(C(=O)Nc3cc(NC(=O)CN4CCC5(CC5)C4)cnc3C)c2s1 [Example 324, N-(5-(2-(5-azaspiro[2.4]heptan-5-yl)acetamido)-2-methylpyridin-3-yl)-2-(2-methoxypyridin-3-yl)pyrazolo[5,1-b]thiazole-7-carboxamide] | 0.1 | 5240
14 | Cc1ncc(NC(=O)CN2CC(C)(C)C2)cc1NC(=O)c1cnn2cc(-c3cnn(C4CS(=O)(=O)C4)c3)sc12 [Example 262, N-(5-(2-(3,3-dimethylazetidin-1-yl)acetamido)-2-methylpyridin-3-yl)-2-(1-(1,1-dioxidothietan-3-yl)-1H-pyrazol-4-yl)pyrazolo[5,1-b]thiazole-7-carboxamide] | 0.5 | > 7500
15 | Cc1ncc(NC(=O)CN2CC(C)(C)C2)cc1NC(=O)c1cnn2cc(-c3ccc(C4(O)COC4)cc3)sc12 [Example 272, N-(5-(2-(3,3-dimethylazetidin-1-yl)acetamido)-2-methylpyridin-3-yl)-2-(4-(3-hydroxyoxetan-3-yl)phenyl)pyrazolo[5,1-b]thiazole-7-carboxamide] | 0.2 | > 7500
16 | Cc1ncc(NC(=O)OC[C@@H]2CCCN2C)cc1NC(=O)c1cnn2cc(-c3cc[nH]c3)sc12 [Example 258, (S)-(1-methylpyrrolidin-2-yl)methyl (5-(2-(1H-pyrrol-3-yl)pyrazolo[5,1-b]thiazole-7-carboxamido)-6-methylpyridin-3-yl)carbamate] | 0.4 | > 7500
17 | Cc1ncc(NC(=O)OC[C@@H]2CCCN2C)cc1NC(=O)c1cnn2cc(-c3cccnc3O)sc12 [Example 256, (S)-(1-methylpyrrolidin-2-yl)methyl (5-(2-(2-hydroxypyridin-3-yl)pyrazolo[5,1-b]thiazole-7-carboxamido)-6-methylpyridin-3-yl)carbamate] | 0.6 | > 7500
18 | Cc1ncc(NC(=O)CN2CCCC(O)C2)cc1NC(=O)c1cnn2cc(-c3cnn(C)c3)sc12 (centres unmarked) [Example 303, N-(5-(2-(3-hydroxypiperidin-1-yl)acetamido)-2-methylpyridin-3-yl)-2-(1-methyl-1H-pyrazol-4-yl)pyrazolo[5,1-b]thiazole-7-carboxamide] | 0.4 | > 7500
19 | COc1ncccc1-c1cn2ncc(C(=O)Nc3cc(C(=O)NCCN4CCC[C@@H]4C)cnc3C)c2s1 [Example 301, (S)-2-(2-methoxypyridin-3-yl)-N-(2-methyl-5-((2-(2-methylpyrrolidin-1-yl)ethyl)carbamoyl)pyridin-3-yl)pyrazolo[5,1-b]thiazole-7-carboxamide] | 0.2 | > 7500
